Measurements as given in US20130109682A1, “CYCLIC ETHER COMPOUNDS USEFUL AS KINASE INHIBITORS” (NOVARTIS AG, priority 2010, published 2013).

Experiments:
[1] = tested on: KMS11 (human myeloma cell line); assay: Cell proliferation assay (CellTiter-Glo), KMS11; assay type: cell-based; conditions: Homo sapiens, KMS-11; KMS11 cells, cell proliferation; read-out: KMS11-Luc EC50
Summary of the method: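 EC50 derived from CellTiter-Glo luminescence after 3-day exposure at 37° C. Compound was diluted to 2× in medium and added to an equal volume of cells. KMS11 myeloma cells were plated on assay day at 2000/well in IMDM with 10% FBS and sodium pyruvate.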

PIM1 = PIM1 (Homo sapiens, UniProt P11309); assay: Pim 1 AlphaScreen assay (high ATP); assay type: biochemical; conditions: read-out: Pim1 IC50
Description: (§1) Pim1, Pim2, Pim3 AlphaScreen Assay Pim 1, Pim 2 & Pim 3 AlphaScreen assays using high ATP (11-125×ATP Km) were used to determine the biochemical activity of the inhibitors. The activity of Pim 1, Pim 2, & Pim 3 is measured using a homogeneous bead based system quantifying the amount of phosphorylated peptide substrate resulting from kinase-catalyzed phosphoryl transfer to a peptide substrate. Compounds to be tested are dissolved in 100% DMSO and directly distributed to a white 384-well plate at […] per well. To start the reaction, 5 μl of 100 nM Bad peptide (Biotin-AGAGRSRHSSYPAGT —OH) and ATP (concentrations described below) in assay buffer (50 mM Hepes, pH=7.5, 5 mM MgCl2, 0.05% BSA, 0.01% Tween-20, 1 mM DTT) is added to each well. This is followed by the addition of 5 μl/well of Pim 1, Pim 2 or Pim 3 kinase in assay buffer (concentrations described below). Final assay concentrations (described below) are in 2.5% DMSO. The reactions are performed for ˜2 hours, then stopped by the addition of 10 μl of 0.75 μg/ml anti-phospho Ser/Thr antibody (Cell Signaling), 10 μg/ml Protein A AlphaScreen beads (Perkin Elmer), and 10 μg/ml streptavidin coated AlphaScreen beads in stop/detection buffer (50 mM EDTA, 95 mM Tris, pH=7.5, 0.01% Tween-20). The stopped reactions are incubated overnight in the dark. The phosphorylated peptide is detected via an […] initiated chemiluminescence/fluorescence cascade using the Envision plate reader (Perkin Elmer).
(§2) IC50, the half maximal inhibitory concentration, represents the concentration of a test compound that is required for 50% inhibition of its target in vitro under the described assay conditions.

PIM2 = PIM2 (Homo sapiens, UniProt Q9P1W9); assay: Pim 2 AlphaScreen assay (high ATP); assay type: biochemical; conditions: read-out: Pim2 IC50
Summary of the method: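 IC50 values rest on detection of phosphorylated Bad peptide: after a ~2 h kinase reaction, an EDTA stop buffer containing anti-phospho Ser/Thr antibody, Protein A and streptavidin AlphaScreen beads was added and read after overnight dark incubation. ATP was high (11-125× Km), with 2.5% DMSO in pH 7.5 Hepes buffer containing MgCl2, BSA, Tween-20 and DTT.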

PIM3 = PIM3 (Homo sapiens, UniProt Q86V86); assay: Pim 3 AlphaScreen assay (high ATP); assay type: biochemical; conditions: read-out: Pim3 IC50
Description: as §1, §2

GSK3β = GSK3β (Homo sapiens, UniProt P49841); assay: GSK3β ATP depletion assay; assay type: biochemical; conditions: ATP depletion assay; read-out: GSK3b IC50
Summary of the method: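 Kinase activity is read as ATP consumption: luciferase luminescence reports the ATP remaining once roughly half of the 2 μM ATP is used. Reaction mix: 5 nM GSK3β, 10 μM b-CREB peptide, 50 mM Tris pH 7.5, 15 mM MgCl2, 1 mM DTT, 0.1% BSA, 2.5% DMSO. Enzyme and peptide are preincubated 15 min before ATP is added.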

Sequence of PIM2 (Q9P1W9 whole entry): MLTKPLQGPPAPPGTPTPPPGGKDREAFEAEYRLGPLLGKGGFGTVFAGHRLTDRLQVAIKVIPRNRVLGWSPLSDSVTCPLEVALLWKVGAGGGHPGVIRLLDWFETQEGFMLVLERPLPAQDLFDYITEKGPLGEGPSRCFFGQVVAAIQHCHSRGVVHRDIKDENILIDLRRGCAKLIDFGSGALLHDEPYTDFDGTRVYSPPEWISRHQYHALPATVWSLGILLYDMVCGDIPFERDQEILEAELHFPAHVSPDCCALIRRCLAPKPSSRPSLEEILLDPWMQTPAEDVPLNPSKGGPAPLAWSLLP
Sequence of GSK3β (P49841 whole entry, species assumed): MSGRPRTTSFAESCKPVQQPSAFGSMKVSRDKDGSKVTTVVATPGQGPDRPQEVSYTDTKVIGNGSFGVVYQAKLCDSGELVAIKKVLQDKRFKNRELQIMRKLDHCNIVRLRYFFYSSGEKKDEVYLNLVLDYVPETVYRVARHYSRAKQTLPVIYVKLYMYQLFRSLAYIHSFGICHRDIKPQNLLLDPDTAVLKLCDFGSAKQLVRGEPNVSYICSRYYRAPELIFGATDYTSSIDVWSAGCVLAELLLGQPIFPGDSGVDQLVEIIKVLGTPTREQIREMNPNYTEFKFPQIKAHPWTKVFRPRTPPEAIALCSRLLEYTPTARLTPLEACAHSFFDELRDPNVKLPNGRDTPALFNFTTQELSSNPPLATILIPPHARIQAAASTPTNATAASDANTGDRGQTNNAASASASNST
Sequence of PIM1 (P11309 whole entry): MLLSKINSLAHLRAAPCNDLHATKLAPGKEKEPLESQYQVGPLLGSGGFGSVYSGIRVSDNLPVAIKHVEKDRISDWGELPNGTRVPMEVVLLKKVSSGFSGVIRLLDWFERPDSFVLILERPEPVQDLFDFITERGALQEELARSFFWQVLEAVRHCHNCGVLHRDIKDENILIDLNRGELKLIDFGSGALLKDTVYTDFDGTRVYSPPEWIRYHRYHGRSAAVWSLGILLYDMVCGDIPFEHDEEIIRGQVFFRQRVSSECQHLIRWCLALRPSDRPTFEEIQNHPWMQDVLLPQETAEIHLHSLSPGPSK

**Q.** What does the source list for `CC(C)[C@H]1O[C@@H](c2ccncc2NC(=O)c2ccc(F)c(-c3ccc(C#N)cc3F)n2)C[C@@H](N)[C@@H]1O` [Example 330, N-(4-((2R,4R,5S,6R)-4-amino-5-hydroxy-6-isopropyltetrahydro-2H-pyran-2-yl)pyridin-3-yl)-6-(4-cyano-2-fluorophenyl)-5-fluoropicolinamide]?
**A.** EC50 [1]: 2430 nM; IC50 (PIM1): 2 nM; IC50 (PIM2): 229 nM; IC50 (PIM3): 232 nM

**Q.** Which IC50 (GSK3β) does the source give for `N[C@@H]1C[C@H](c2ccncc2NC(=O)c2ccc(F)c(-c3c(F)cccc3F)n2)O[C@@H]2CCC(=O)N[C@@H]12` [Example 241, N-(4-((2R,4R,4aS,8aR)-4-amino-6-oxooctahydro-2H-pyrano[3,2-b]pyridin-2-yl)pyridin-3-yl)-6-(2,6-difluorophenyl)-5-fluoropicolinamide] here?
**A.** 6300 nM

**Q.** And the IC50 (PIM1)?
**A.** 20.8 nM

**Q.** And the IC50 (PIM2)?
**A.** 393 nM

**Q.** And the IC50 (PIM3)?
**A.** 132 nM

**Q.** How did the IC50 (GSK3β) turn out when `C[C@@]1(O)[C@@H](O)C[C@@H](c2ccncc2NC(=O)c2ccc(F)c(-c3c(F)cccc3F)n2)O[C@H]1C1CC1` [Example 248, N-(4-((2S,4S,5R,6S)-6-cyclopropyl-4,5-dihydroxy-5-methyltetrahydro-2H-pyran-2-yl)pyridin-3-yl)-6-(2,6-difluorophenyl)-5-fluoropicolinamide] was run?
**A.** 1970 nM

**Q.** And the IC50 (PIM1)?
**A.** 92 nM

**Q.** What about the IC50 (PIM2) of the same compound?
**A.** 9280 nM

**Q.** And the IC50 (PIM3)?
**A.** 2270 nM

**Q.** For `Nc1cnc(-c2c(F)cccc2F)nc1C(=O)Nc1cnccc1[C@H]1C[C@@H](O)[C@H](O)C2(CC2)O1` [Example 252, 5-amino-2-(2,6-difluorophenyl)-N-(4-((5R,7R,8S)-7,8-dihydroxy-4-oxaspiro[2.5]octan-5-yl)pyridin-3-yl)pyrimidine-4-carboxamide], which IC50 (GSK3β) is on record?
**A.** 572 nM

**Q.** And the IC50 (PIM1)?
**A.** 20.3 nM

**Q.** What about the IC50 (PIM2) of the same compound?
**A.** 848 nM

**Q.** What about the IC50 (PIM3) of the same compound?
**A.** 252 nM

**Q.** How did the IC50 (GSK3β) turn out when `C[C@]1(O)[C@H](N)C[C@H](c2ccncc2NC(=O)c2ccc(F)c(-c3c(F)cccc3F)n2)OC12CC2` [Example 267, N-(4-((5R,7R,8S)-7-amino-8-hydroxy-8-methyl-4-oxaspiro[2.5]octan-5-yl)pyridin-3-yl)-6-(2,6-difluorophenyl)-5-fluoropicolinamide] was run?
**A.** 6930 nM

**Q.** And the IC50 (PIM1)?
**A.** 2.52 nM

**Q.** What about the IC50 (PIM2) of the same compound?
**A.** 213 nM

**Q.** And the IC50 (PIM3)?
**A.** 29.7 nM

**Q.** Which IC50 (GSK3β) does the source give for `C[C@]1(O)[C@H](N)C[C@H](c2ccncc2NC(=O)c2nc(-c3c(F)cccc3F)c(F)cc2N)O[C@@H]1C1CC1` [Example 261, 3-amino-N-(4-((2R,4R,5S,6R)-4-amino-6-cyclopropyl-5-hydroxy-5-methyltetrahydro-2H-pyran-2-yl)pyridin-3-yl)-6-(2,6-difluorophenyl)-5-fluoropicolinamide] here?
**A.** 5520 nM

**Q.** What about the IC50 (PIM1) of the same compound?
**A.** 0.11 nM

**Q.** And the IC50 (PIM2)?
**A.** 6.1 nM

**Q.** What about the IC50 (PIM3) of the same compound?
**A.** 1.2 nM

**Q.** Which IC50 (GSK3β) does the source give for `CC[C@@H]1O[C@H](c2ccncc2NC(=O)c2ccc(F)c(-c3c(F)cccc3F)n2)C[C@H](N)[C@@]1(C)O` (stereo in doubt) [Example 276, N-(4-((2S,4S,5R,6S)-4-amino-6-ethyl-5-hydroxy-5-methyltetrahydro-2H-pyran-2-yl)pyridin-3-yl)-6-(2,6-difluorophenyl)-5-fluoropicolinamide] here?
**A.** 20900 nM

**Q.** And the IC50 (PIM1)?
**A.** 0.47 nM

**Q.** What about the IC50 (PIM2) of the same compound?
**A.** 17.4 nM

**Q.** And the IC50 (PIM3)?
**A.** 4.6 nM

**Q.** For `O=C(Nc1cnccc1[C@@H]1C[C@H](O)[C@@H](O)C2(CC2)O1)c1ccc(F)c(-c2c(F)cccc2F)n1` [Example 250, 6-(2,6-difluorophenyl)-N-(4-((5S,7S,8R)-7,8-dihydroxy-4-oxaspiro[2.5]octan-5-yl)pyridin-3-yl)-5-fluoropicolinamide], which IC50 (GSK3β) is on record?
**A.** 1040 nM

**Q.** What about the IC50 (PIM1) of the same compound?
**A.** 20.1 nM

**Q.** What about the IC50 (PIM2) of the same compound?
**A.** 3590 nM

**Q.** What about the IC50 (PIM3) of the same compound?
**A.** 499 nM

**Q.** How did the IC50 (GSK3β) turn out when `N[C@H]1C[C@@H](c2ccncc2NC(=O)c2ccc(F)c(-c3c(F)cccc3F)n2)O[C@@H](C2CC2)[C@@H]1O` [Example 236, N-(4-((2S,4S,5R,6S)-4-amino-6-cyclopropyl-5-hydroxytetrahydro-2H-pyran-2-yl)pyridin-3-yl)-6-(2,6-difluorophenyl)-5-fluoropicolinamide] was run?
**A.** > 25000 nM

**Q.** And the IC50 (PIM1)?
**A.** 3.67 nM

**Q.** And the IC50 (PIM2)?
**A.** 209 nM

**Q.** What about the IC50 (PIM3) of the same compound?
**A.** 116 nM

**Q.** What does the source list for `C[C@@]1(O)[C@@H](N)C[C@@H](c2ccncc2NC(=O)c2ccc(F)c(-c3c(F)cccc3F)n2)OC12CC2` [Example 266, N-(4-((5S,7S,8R)-7-amino-8-hydroxy-8-methyl-4-oxaspiro[2.5]octan-5-yl)pyridin-3-yl)-6-(2,6-difluorophenyl)-5-fluoropicolinamide]?
**A.** IC50 (GSK3β): 6060 nM; IC50 (PIM1): 1.98 nM; IC50 (PIM2): 394 nM; IC50 (PIM3): 27.5 nM

**Q.** What does the source list for `C[C@]1(O)[C@H](N)C[C@H](c2ccncc2NC(=O)c2csc(-c3c(F)cccc3F)n2)O[C@@H]1C1CC1` [Example 263, N-(4-((2R,4R,5S,6R)-4-amino-6-cyclopropyl-5-hydroxy-5-methyltetrahydro-2H-pyran-2-yl)pyridin-3-yl)-2-(2,6-difluorophenyl)thiazole-4-carboxamide]?
**A.** IC50 (GSK3β): 334 nM; IC50 (PIM1): 1.26 nM; IC50 (PIM2): 72.7 nM; IC50 (PIM3): 23.1 nM

**Q.** What does the source list for `C[C@]1(O)[C@H](O)C[C@H](c2ccncc2NC(=O)c2ccc(F)c(-c3c(F)cccc3F)n2)O[C@@H]1C1CC1` [Example 247, N-(4-((2R,4R,5S,6R)-6-cyclopropyl-4,5-dihydroxy-5-methyltetrahydro-2H-pyran-2-yl)pyridin-3-yl)-6-(2,6-difluorophenyl)-5-fluoropicolinamide]?
**A.** IC50 (GSK3β): 1200 nM; IC50 (PIM1): 4.01 nM; IC50 (PIM2): 185 nM; IC50 (PIM3): 103 nM

**Q.** Which results are given for `C[C@]1(O)[C@H](N)C[C@H](c2ccncc2NC(=O)c2ccc(F)c(-c3c(F)cccc3F)n2)O[C@@H]1C1CC1` [Example 256, N-(4-((2R,4R,5S,6R)-4-amino-6-cyclopropyl-5-hydroxy-5-methyltetrahydro-2H-pyran-2-yl)pyridin-3-yl)-6-(2,6-difluorophenyl)-5-fluoropicolinamide]?
**A.** IC50 (GSK3β): 4620 nM; IC50 (PIM1): 0.17 nM; IC50 (PIM2): 6.1 nM; IC50 (PIM3): 1.7 nM

**Q.** For `CC[C@]1(O)[C@H](N)C[C@H](c2ccncc2NC(=O)c2ccc(F)c(-c3c(F)cc(OC)cc3F)n2)O[C@@H]1C` [Example 258, N-(4-((2R,4R,5S,6R)-4-amino-5-ethyl-5-hydroxy-6-methyltetrahydro-2H-pyran-2-yl)pyridin-3-yl)-6-(2,6-difluoro-4-methoxyphenyl)-5-fluoropicolinamide], which IC50 (GSK3β) is on record?
**A.** 183 nM

**Q.** What about the IC50 (PIM1) of the same compound?
**A.** 0.04 nM

**Q.** And the IC50 (PIM2)?
**A.** 6.2 nM

**Q.** And the IC50 (PIM3)?
**A.** 0.5 nM

**Q.** What does the source list for `C[C@@]1(O)[C@@H](N)C[C@@H](c2ccncc2NC(=O)c2ccc(F)c(-c3c(F)cccc3F)n2)O[C@H]1C1CC1` [Example 257, N-(4-((2S,4S,5R,6S)-4-amino-6-cyclopropyl-5-hydroxy-5-methyltetrahydro-2H-pyran-2-yl)pyridin-3-yl)-6-(2,6-difluorophenyl)-5-fluoropicolinamide]?
**A.** IC50 (GSK3β): 20000 nM; IC50 (PIM1): 1.88 nM; IC50 (PIM2): 173 nM; IC50 (PIM3): 35.9 nM

**Q.** With `CC(C)(C)[C@@H]1O[C@H](c2ccncc2NC(=O)c2ccc(F)c(-c3c(F)cccc3F)n2)C[C@H](N)[C@H]1O` [Example 254, N-(4-((2S,4S,5R,6S)-4-amino-6-(tert-butyl)-5-hydroxytetrahydro-2H-pyran-2-yl)pyridin-3-yl)-6-(2,6-difluorophenyl)-5-fluoropicolinamide] as the compound, how does the IC50 (GSK3β) read?
**A.** 4690 nM

**Q.** And the IC50 (PIM1)?
**A.** 0.78 nM

**Q.** What about the IC50 (PIM2) of the same compound?
**A.** 47.2 nM

**Q.** And the IC50 (PIM3)?
**A.** 16 nM

**Q.** `Cc1cc(F)c(-c2nc(C(=O)Nc3cnccc3[C@H]3C[C@@H](N)[C@](C)(O)[C@@H](C4CC4)O3)ccc2F)c(F)c1` [Example 264, N-(4-((2R,4R,5S,6R)-4-amino-6-cyclopropyl-5-hydroxy-5-methyltetrahydro-2H-pyran-2-yl)pyridin-3-yl)-6-(2,6-difluoro-4-methylphenyl)-5-fluoropicolinamide] was tested. Which IC50 (GSK3β) did it give?
**A.** 1790 nM

**Q.** And the IC50 (PIM1)?
**A.** 0.11 nM

**Q.** What about the IC50 (PIM2) of the same compound?
**A.** 8.1 nM

**Q.** What about the IC50 (PIM3) of the same compound?
**A.** 2.4 nM
